Experimental data: article PMC9413201, “Covalent Proteomimetic Inhibitor of the Bacterial FtsQB Divisome Complex” (Journal of the American Chemical Society, 2022)
Numbered stars: 1 amine (or outer) side, 2 acyl side, 3 side chain; on linkers, the order of the positions; unused ones are H or OH. Bridge positions count the residues as written; N and C are the ends. Square brackets hold non-standard residues; d marks the D form. Peptide text beside a SMILES is read from it. * marks the point of attachment. X1 = O=C([C@H](CCCCCC=[*:3])N[*:1])[*:2]; Nle = CCCC[C@H](N)C(=O)O; BrAc = O=C(CBr)*

Assays:
FtsQ(50–276) = FtsQ(50–276) (Escherichia coli, UniProt P06136); experiment: LC/MS analysis of modified FtsQ(50–276); type: biochemical, E. coli; design: pET16b FtsQ(50˗276), a His6 fusion; made in house; host or cells: Escherichia coli BL21 DE3; conditions: HPLC/MS, deconvolution; expected for reaction with 1 equiv ΔMW = 2122 g/mol; 37 °C, NH4HCO3 buffer pH 7.6
Experimental: 1.6 LC/MS-analysis of modified FtsQ(50˗276)
To determine the reactivity of 17fα, FtsQ(50˗276) was diluted to a concentration of 100 μM in 20 mM NH4HCO3 buffer (pH 7.6, 150 mM NaCl). The peptide 17fα was diluted to a concentration of 250 μM in the same buffer.
Equal volumes of both solutions were mixed and incubated at 37 °C for the given time period (1 h or 3 h). The reaction was quenched by 4-fold dilution in ACN/H2O (1:1) + 0.1 % TFA.
20 μL of the resulting solution were injected and analysed by analytical reverse-phase HPLC (1260 Infinity II, Agilent Technology; flow rate of 0.3 mL·min-1, A: water with 0.1% FA, B: 80% iPrOH, 10% ACN, 10% H2O with 0.1% FA; AdvanceBio RP-mAB C4 column, 2.1×50 mm, 3.5 µm particle size) using a 10 min gradient (20-80% B) coupled to a mass spectrometer (Infinity Lab LC/MSD XT, Agilent Technology) using API-ES (MSD signal settings: Polarity: Positive; scan mass range: 500-3000; Fragmentor 70). Analytical HPLC chromatograms at 210 nm and MS spectra, masses and m/z ratios are shown in the appendix – analytics part. […]
Morphology assays were executed to assess the physiological change of E.coli cells upon exposure to different peptides. All steps in this protocol were performed under sterile conditions. For each assay, 20 mL of fresh MOPS medium was prepared (40 mM MOPS, 4 mM tricine, 0.01 mM FeSO-4, 9.5 mM NH4Cl, 0.276 mM K2SO4, 0.5

[1] = Toxicity test in uninfected zebrafish larvae; conditions: 15 zebrafish per condition, L8S1 3.125 µM, 17fα 70 µM, n = 1 replicate
E. coli 87 = type: cell-based, Escherichia coli
Experimental: 1.11 Checkerboard synergy assay
As described by Hsieh et al.,6 two-fold dilution series of cationic peptides were made in polypropylene microtiter plates (Ratiolab, L6018123, Dreieich, Germany) in 50 μL volume of MOPS medium/2% DMSO. Primary clinical isolates of Escherichia coli 87 were provided by Dr. Karin van Dijk, Amsterdam UMC. In a similar manner, two-fold dilution series of 17fα were made in polystyrene microtiter plates (Costar, REF3779, Corning NY, United States) in 70 μL volume of MOPS medium. Then, 50 μL of the 17fα series was transferred to the L8S1 containing polypropylene plate, resulting in a checkerboard titration of a L8S1 on the vertical axis and an 17fα on the horizontal axis. Mid-log phase cultures were diluted to OD600 0.1 and 10 μL culture was added to each well of the microtiter plate, resulting in a total volume of 110 μL and an OD600 of ~0.01 ([…]), and the OD600 was measured every 15 min for 12 h using the microplate reader. First, the MIC values of the compounds alone were determined as described previously. Similarly, the MIC values of the compound combination were determined (the fractional inhibitory concentrations (FIC))6. With these MIC values and FIC values, the fractional inhibitory concentration index (FICindex) was calculated as follows:
FIC = FICantibiotic + FICpeptide (1) […]

E. coli lptD4213 (imp) = experiment: Growth assay (OD600) with outer membrane-permeable E. coli lptD4213 (imp); type: cell-based
Experimental: Growth assays were performed to assess the in vitro cytotoxicity of peptides. The experiments were executed under sterile conditions. For each assay, 20 mL of fresh MOPS medium was prepared (Teknova Inc MOPS EZ Rich Defined Medium Kit | M2105: 40 mM MOPS, 4 mM Tricine, 0.01 mM FeSO4, 9.5 mM NH4Cl, 0.276 mM […]
MOPS medium with Streptomycin (30 μg/mL) and incubated overnight at 200 rpm and 37°C. The next day, the […]
peptide stocks in DMSO were diluted to four times the desired highest concentration to be measured in MOPS medium. The peptide dilutions were vortexed and briefly centrifuged. 50 μL of MOPS medium was added to each well of a Corning® 96-well Clear Flat Bottom Polystyrene TC-treated Microplate. A twofold dilution series was performed by adding 50 μL of the diluted peptide to the top row, mixing it and taking 50 μL to the next row. At each step the solution was resuspended five times. This was repeated until the last row which was skipped in order to obtain a reference measurement. After 2-3 h, the E.coli lptD4213 (imp) pre-culture was diluted to an OD600 of 0.00005. Then, 50 μL of diluted culture were added to each well and the plate sealed using a lid and parafilm. The OD600 was measured every 15 min over a period of more than 20 h (continuously shaking, 37°C) using a BioTek Synergy H1 plate reader. The obtained data were analyzed and relative growth curves plotted with GraphPad Prism 8. The assays were performed as technical triplicates. A single overnight pre-culture was used to prepare the diluted MOPS culture used in the growth assay. […]

Sequence of FtsQ(50–276) (P06136 50-276): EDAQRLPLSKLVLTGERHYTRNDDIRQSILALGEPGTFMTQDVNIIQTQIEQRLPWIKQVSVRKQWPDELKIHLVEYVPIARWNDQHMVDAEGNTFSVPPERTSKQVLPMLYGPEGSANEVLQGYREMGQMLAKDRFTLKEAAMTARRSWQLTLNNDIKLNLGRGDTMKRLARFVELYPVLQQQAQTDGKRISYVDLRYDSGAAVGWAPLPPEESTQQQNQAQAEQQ

## CCCC[C@@H]1NC(=O)[C@H](CO)NC(=O)[C@H](CC(C)C)NC(=O)[C@H](CCC(=O)O)NC(=O)[C@H](CC(N)=O)NC(=O)[C@@H](NC(=O)[C@H](C)NC(C)=O)CCCCCC=CCCCCC[C@@H](C(=O)N[C@@H](CCCCNC(=O)CBr)C(=O)N[C@@H](Cc2ccccc2)C(=O)N[C@@H](Cc2ccc(O)cc2)C(=O)N[C@@H](CCCNC(=N)N)C(=O)N[C@@H](CC(C)C)C(N)=O)NC(=O)CNC(=O)[C@@H]2CCCN2C(=O)[C@H](CCCNC(=N)N)NC(=O)[C@H]([C@@H](C)O)NC1=O [17fα] (Ac-A[X1]NELS[Nle]TRPG[X1]K(BrAc)FYRL-NH2; staple 2-12)
FtsQ(50–276)
  ΔMW of FtsQ(50–276) after treatment (obtained mass difference): 2124 g/mol
[1]
  Surviving zebrafish, Day 1: 15
  Surviving zebrafish, Day 2: 15
E. coli 87; 17fα in combination with L8S1, checkerboard synergy assay, OD600 after 12 h, MIC = 90% growth inhibition, from averages of MICs (L8S1 n = 3, 17fα n = 5), ≤ 0.5 synergistic
  FICindex (fractional inhibitory concentration index): 0.33
E. coli 87; clinical multidrug-resistant E. coli 87, MOPS medium, OD600
  inhibitor concentration required for growth inhibition: > 100 µM
E. coli lptD4213 (imp); concentration-dependent effect on growth after 15 h, highest tested concentration 100 μM, n = 3 replicates
  lowest concentration with inhibitory effect on growth: 12.5 µM
E. coli lptD4213 (imp); inhibitor c = 50 μM, OD600 every 15 min over 22 h, n = 3 technical replicates
  effect on bacterial growth (OD600): prevents bacterial growth
